Measured values published in BindingDB's records for doi:10.7270/Q2222S6W (University of Pittsburgh, 2007).
Structures can show the parent of a compound that is named as a salt.

The compounds below were run against Genome polyprotein (West Nile virus, UniProt P06935) (assay: inhibitors of WNV NS2B-NS3 protease, dose response, biochemical, confirmation (AID 653)).
Genome polyprotein, sequence (P06935 1371-1501 limits assumed): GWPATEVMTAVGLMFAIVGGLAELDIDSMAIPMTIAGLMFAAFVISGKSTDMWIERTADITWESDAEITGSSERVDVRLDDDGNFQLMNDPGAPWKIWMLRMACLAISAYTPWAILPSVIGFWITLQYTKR
Genome polyprotein, sequence (P06935 1502-2120 limits assumed): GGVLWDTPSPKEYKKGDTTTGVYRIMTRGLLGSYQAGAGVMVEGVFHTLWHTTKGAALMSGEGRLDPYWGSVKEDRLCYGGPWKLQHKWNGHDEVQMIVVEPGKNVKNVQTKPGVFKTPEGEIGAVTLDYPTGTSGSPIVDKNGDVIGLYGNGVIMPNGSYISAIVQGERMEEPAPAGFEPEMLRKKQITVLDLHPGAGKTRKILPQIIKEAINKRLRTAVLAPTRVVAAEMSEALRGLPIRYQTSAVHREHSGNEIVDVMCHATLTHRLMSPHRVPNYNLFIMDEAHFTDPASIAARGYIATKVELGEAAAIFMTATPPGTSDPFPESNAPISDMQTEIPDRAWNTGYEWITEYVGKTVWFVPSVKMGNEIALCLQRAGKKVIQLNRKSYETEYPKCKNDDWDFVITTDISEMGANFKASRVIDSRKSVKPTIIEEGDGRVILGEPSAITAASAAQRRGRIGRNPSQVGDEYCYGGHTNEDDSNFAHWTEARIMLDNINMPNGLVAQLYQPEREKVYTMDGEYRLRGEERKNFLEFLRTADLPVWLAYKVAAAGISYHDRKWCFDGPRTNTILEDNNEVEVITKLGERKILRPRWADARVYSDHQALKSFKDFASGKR

SMILES	IC50
OC[C@H]1O[C@@H](n2cnc3c(NC4CCCC4)ncnc32)[C@H](O)[C@@H]1O	> 50 µM
COc1ccc(C2=Nn3c(nnc3-c3ccc(OC)cc3)SC2)cc1	> 50 µM
Cc1ccc(S(=O)(=O)n2nc(OC(=O)c3cccs3)cc2N)cc1	2.41 µM
Nc1cc(OC(=O)c2ccco2)nn1S(=O)(=O)c1ccc(F)cc1	1.65 µM
N[C@@H](Cc1ccc(O)c(I)c1)C(=O)O	> 50 µM
CCCC(=O)Nc1ccc(NC(=O)C23CC4CC(CC(C4)C2)C3)cn1	> 50 µM
COc1ccccc1-n1c(SCC(=O)N2CCOCC2)nc(O)c(Cc2ccccc2)c1=O	> 50 µM
CCOC(=O)C1=C[C@]2(CC)CCCN3CCc4c(n1c1ccccc41)[C@@H]32	> 50 µM
O=C(O)c1cc(-c2ccc(F)cc2F)ccc1O	> 50 µM
CN1C(=O)N(CN2CCCCC2)C2C1N(C)C(=O)N2CN1CCCCC1 (configuration not stated) [1,6-dimethyl-3,4-bis(1-piperidinylmethyl)-3a,6a-dihydroimidazo[4,5-d]imidazole-2,5-dione]	> 50 µM
Cc1ccc(NC(=O)C2CCN(S(=O)(=O)c3cccc4nonc34)CC2)nc1 [1-(2,1,3-benzoxadiazol-4-ylsulfonyl)-N-(5-methyl-2-pyridinyl)-4-piperidinecarboxamide]	> 50 µM
O=C(c1cccs1)N1CCN(C(=O)c2ccco2)c2ccccc2C1 [1-(2-furoyl)-4-(thien-2-ylcarbonyl)-2,3,4,5-tetrahydro-1H-1,4-benzodiazepine]	> 50 µM
CCOC(=O)C1CCN(S(=O)(=O)c2ccc(C(=O)OC)cc2)CC1 [1-(4-Methoxycarbonyl-benzenesulfonyl)-piperidine-4-carboxylic acid ethyl ester]	> 50 µM
CCSc1nnc(NC(=O)NCC(F)(F)F)s1 [1-(5-ethylsulfanyl-1,3,4-thiadiazol-2-yl)-3-(2,2,2-trifluoroethyl)urea]	> 50 µM
Cc1cc(N2CCC(C(=O)NC3CCCCC3)CC2)nc(-c2ccccc2)n1 [1-(6-Methyl-2-phenyl-pyrimidin-4-yl)-piperidine-4-carboxylic acid cyclohexylamide]	> 50 µM
CCCCNC(=O)NS(=O)(=O)c1ccc(C)cc1 [1-Butyl-3-(p-methylphenylsulfonyl)urea]	> 50 µM
CC(C)c1nnc(NC(=O)c2c(O)n3c4c(cccc4c2=O)CCC3)s1 [1-Hydroxy-3-oxo-6,7-dihydro-3H,5H-pyrido[3,2,1-ij]quinoline-2-carboxylic acid (5-isopropyl-[1,3,4]thiadiazol-2-yl)-amide]	> 50 µM
COc1cccc(CNC(=O)C2CCN(S(=O)(=O)c3ccc4c(c3)CCC(=O)N4)CC2)c1 [1-[(2-keto-3,4-dihydro-1H-quinolin-6-yl)sulfonyl]-N-m-anisyl-isonipecotamide]	> 50 µM
CC(CC1(O)C(=O)N(Cc2ccccc2)c2ccccc21)N=O (configuration not stated) [1-benzyl-3-(2-hydroximinopropyl)-3-hydroxy-oxindole]	> 50 µM

SMILES	IC50
CC(C)n1c(-c2cccnc2)nc2cnccc21 [1-isopropyl-2-(3-pyridyl)imidazo[4,5-c]pyridine]	> 50 µM
Cn1cc(C(=O)NCN2CCCCC2)c2ccccc21 [1-methyl-N-(1-piperidinylmethyl)-3-indolecarboxamide;hydrochloride]	> 50 µM
OC(CNCCCN1CCCCC1)COc1ccccc1 (configuration not stated) [1-phenoxy-3-(3-piperidin-1-ylpropylamino)propan-2-ol;hydrochloride]	> 50 µM
CC1=C(C#N)C(=O)OC(C)(C)C1 [2,2,4-trimethyl-6-oxidanylidene-3H-pyran-5-carbonitrile]	> 50 µM
Cc1cnc(NC(=O)C(C)N2C(=O)C3CC=CCC3C2=O)s1 (configuration not stated) [2-(1,3-diketo-3a,4,7,7a-tetrahydroisoindol-2-yl)-N-(5-methylthiazol-2-yl)propionamide]	> 50 µM
O=C(OCCN1C(=O)c2ccccc2C1=O)c1cc(S(=O)(=O)N2CCOCC2)ccc1F [2-(1,3-dioxoisoindol-2-yl)ethyl 2-fluoro-5-morpholin-4-ylsulfonylbenzoate]	> 50 µM
COc1ccc(OC)c(C2C(C(N)=O)C(C)=Nc3nc(-c4cccc(Cl)c4)nn32)c1 (configuration not stated) [2-(3-chlorophenyl)-7-(2,5-dimethoxyphenyl)-5-methyl-1,7-dihydro-[1,2,4]triazolo[1,5-a]pyrimidine-6-carboxamide]	> 50 µM
CCc1cccc2c(C#N)cn(CC(=O)NCc3ccco3)c12 [2-(3-cyano-7-ethyl-1-indolyl)-N-(2-furanylmethyl)acetamide]	> 50 µM
Cc1cccn2c(=O)c(/C=N/Cc3ccco3)c(Nc3ccc(Cl)cc3)nc12 [2-(4-chloroanilino)-3-(2-furanylmethyliminomethyl)-9-methyl-4-pyrido[1,2-a]pyrimidinone]	> 50 µM
CCC(=O)N1CCc2cc(Br)cc(S(=O)(=O)CC(=O)OC)c21 [2-(5-bromo-1-propionyl-indolin-7-yl)sulfonylacetic acid methyl ester]	> 50 µM
COC(=O)c1c(NC(=O)C2CC2)sc2c1CCCC2 [2-(cyclopropanecarbonylamino)-4,5,6,7-tetrahydrobenzothiophene-3-carboxylic acid methyl ester]	> 50 µM
COc1cccc(NC(=O)CSc2nc3nnc(C)c-3c(N)n2-c2cccc(OC)c2)c1 [2-[4-amino-5-(3-methoxyphenyl)-3-methylpyrazolo[3,4-d]pyrimidin-6-yl]sulfanyl-N-(3-methoxyphenyl)acetamide]	> 50 µM
C=CCn1c(SCC(=O)OC)nc2sc3c(c2c1=O)CCN(C)C3 [2-[(3-allyl-4-keto-7-methyl-6,8-dihydro-5H-pyrido[2,3]thieno[2,4-b]pyrimidin-2-yl)thio]acetic acid methyl ester]	> 50 µM
CCOC(=O)CNC(=O)C(Cc1ccccc1)NS(=O)(=O)c1cccs1 (configuration not stated) [2-[[1-oxo-3-phenyl-2-(thiophen-2-ylsulfonylamino)propyl]amino]acetic acid ethyl ester]	> 50 µM
COc1ccc(NC=C2C(=O)CCCC2=O)cc1 [2-[[(4-methoxyphenyl)amino]methylidene]cyclohexane-1,3-dione]	34.1 µM
CCc1nc(N)c(C#N)c(-c2cccn2C)c1C [2-amino-6-ethyl-5-methyl-4-(1-methylpyrrol-2-yl)pyridine-3-carbonitrile]	> 50 µM
CC(C[N+](C)(C)C)OC(N)=O (configuration not stated) [2-aminocarbonyloxypropyl(trimethyl)azanium;chloride]	> 50 µM
Nc1cc(OC(=O)c2ccccc2Br)nn1S(=O)(=O)c1ccccc1 [2-bromobenzoic acid (5-amino-1-besyl-pyrazol-3-yl) ester]	1.26 µM
COc1ccc(S(=O)(=O)n2nc(OC(=O)c3ccccc3Br)cc2N)cc1 [2-bromobenzoic acid [5-amino-1-(4-methoxyphenyl)sulfonyl-3-pyrazolyl] ester]	0.297 µM

SMILES	IC50
COc1ccc(S(=O)(=O)n2nc(OC(=O)c3cccs3)cc2N)cc1 [2-thiophenecarboxylic acid [5-amino-1-(4-methoxyphenyl)sulfonyl-3-pyrazolyl] ester]	0.11 µM
CCOC(=O)c1[nH]c2ccccc2c1NC(=O)CC [3-(1-oxopropylamino)-1H-indole-2-carboxylic acid ethyl ester]	> 50 µM
Brc1cccc(-c2cnc3n2CCCCC3)c1 [3-(3-bromophenyl)-6,7,8,9-tetrahydro-5H-imidaz[1,2-a]azepine;hydrochloride]	> 50 µM
O=S(=O)(c1ccc(Cl)cc1)N1CN2CCN(C2)C1 [3-(4-Chloro-benzenesulfonyl)-1,3,5-triaza-bicyclo[3.2.1]octane]	> 50 µM
CC(=O)N1CCN(C(=O)c2cccc(S(=O)(=O)Nc3ccc(C)cc3)c2)CC1 [3-(4-acetylpiperazine-1-carbonyl)-N-(4-methylphenyl)benzenesulfonamide]	> 50 µM
COc1ccc2[nH]c(C(=O)O)c(CCNC(C)=O)c2c1 [3-[2-(acetylamino)ethyl]-5-methoxy-1H-indole-2-carboxylic acid]	> 50 µM
COc1cccc2cc(-c3csc(CCn4nc(C)cc4C)n3)c(=O)oc12 [3-[2-[2-(3,5-dimethyl-1-pyrazolyl)ethyl]-4-thiazolyl]-8-methoxy-1-benzopyran-2-one]	> 50 µM
O=C(c1cc2ccccc2oc1=O)N1CCN(c2ccc(N3CCOCC3)nn2)CC1 [3-[4-(6-morpholin-4-ylpyridazin-3-yl)piperazin-1-yl]carbonylchromen-2-one]	> 50 µM
CCn1cc(C(=O)Nc2cccc(C(=O)OC)c2)c(=O)c2ccc(C)nc21 [3-[(1-Ethyl-7-methyl-4-oxo-1,4-dihydro-[1,8]naphthyridine-3-carbonyl)-amino]-benzoic acid methyl ester]	> 50 µM
CC(C)NCc1c(O)c(Br)cc2oc3c(c12)CCCC3 [3-bromanyl-1-[(propan-2-ylamino)methyl]-6,7,8,9-tetrahydrodibenzofuran-2-ol]	> 50 µM
CCOC(=O)N1CCN(C2=CC(=O)OC23CCCCC3)CC1 [4-(2-Oxo-1-oxa-spiro[4.5]dec-3-en-4-yl)-piperazine-1-carboxylic acid ethyl ester]	> 50 µM
COc1ccc(N2CCN(C(=O)c3cn(C)c(=O)c4c3c3ccccc3n4C)CC2)cc1 [4-[4-(4-methoxyphenyl)piperazin-1-yl]carbonyl-2,9-dimethyl-pyrido[3,4-b]indol-1-one]	> 50 µM
NC(=O)c1ccc(-n2nnnc2SCc2ccc(F)cc2)cc1 [4-[5-[(4-fluorobenzyl)thio]tetrazol-1-yl]benzamide]	> 50 µM
CCN(CC)CCNC(=O)c1ccc(N)cc1 [4-amino-N-[2-(diethylamino)ethyl]benzamide;hydrochloride]	> 50 µM
CCN(CC(=O)NC(C)C)C(=O)CCNC(=O)c1ccc(Cl)cc1 [4-chloranyl-N-[3-[ethyl-[2-oxidanylidene-2-(propan-2-ylamino)ethyl]amino]-3-oxidanylidene-propyl]benzamide]	> 50 µM
CCOC(=O)C(CC(=O)O)N1CCCCC1 (configuration not stated) [4-ethoxy-4-keto-3-piperidino-butyric acid]	> 50 µM
COc1cc(C)nc(Oc2ccc(OCCOc3ccc(C)cc3)nn2)n1 [4-methoxy-6-methyl-2-[6-[2-(4-methylphenoxy)ethoxy]pyridazin-3-yl]oxy-pyrimidine]	> 50 µM
O=C1NC(=O)C(c2ccccc2)(c2ccccc2)N1 [5,5-DIPHENYLHYDANTOIN SODIUM SALT]	> 50 µM
CNC(=O)c1nnc(Cc2ccc(F)cc2)o1 [5-(4-fluorobenzyl)-N-methyl-1,3,4-oxadiazole-2-carboxamide]	> 50 µM
